The values below come from patent publication US10266564B2, “Cationic lipid cordiarimide hybrid compounds and a process for preparation thereof” (COUNCIL OF SCIENTIFIC & INDUSTRIAL RESEARCH, priority 2014, dated 2019).

One test has as its system HepG2 cells. The test can be described thus: Apoptosis, annexin V/PI staining by flow cytometry. The test is classed as cell-based, human. The conditions noted are these: HepG2, 24 h. On the procedure: Quantitation of apoptotic cells by annexin V staining was carried out according to the manufacturer's instructions. Briefly, cells (5×10^5 cells/well) were seeded in 6 well plates and treated with 5 μM of 8h-8k for 24 h. After incubation, cells were washed with PBS and stained with 1.25 μL of annexin V-FITC and 10 μL of media binding reagent and incubated for 20 min. After that 10 μL of PI was added and samples were analyzed using a flow cytometer. Annexin V-FITC was analyzed using excitation and emission settings of 488 nm and 535 nm (FL-1 channel); PI, 488 nm and 610 nm (FL-2 channel). Debris and clumps were gated out using forward and orthogonal light scatter. Each experiment was repeated two times independently. Results are illustrated in FIG. 1 and the percentage of Annexin-V/PI positive cells increased gradually from 20 to 70% after 24 h of treatment (FIG. 1).
In general terms: In flow cytometry, cells or beads pass a laser one at a time.

The test system of test [1] is HepG2 (hepatocellular carcinoma). The test is described as follows: MTT assay for cell viability, HepG2. The test is classed as cell-based, human. On the procedure:
The human cancer cell lines e.g. HepG2 (hepatocellular carcinoma, ATCC® HB-8065™), PC-3 (human prostate cancer cells, ATCC® CRL-1435™), MCF-7 (breast adenocarcinoma, ATCC® […]), and mouse embryo fibroblasts (NIH/3T3, ATCC® CRL-1658™), used in the present study were obtained from the ATCC (American Type Culture Collection, USA and maintained in RPMI 1640 (Roswell Park Memorial Institute, Merck) with 10% FBS (Merck), supplemented with 1% antibiotic and antimycotic solution (Gibco, USA) at 37° C. in a humidified incubator with 5% CO2. All stock solutions of the compounds were prepared in cell culture grade DMSO (dimethyl sulfoxide) and stored at −20° C. Compounds were diluted in culture media prior to use in experiments. Annexin V-FITC apoptosis detection kits were purchased from Calbiochem. MTT dye was procured from Sigma-Aldrich. All the flow cytometry experiments were performed using a FACScan (Becton Dickinson, Mountain View, Calif.) flow cytometer, equipped with a single 488 nm argon laser.
Cell viability was assessed by MTT assay, which is based on the reduction of MTT by mitochondrial dehydrogenases of viable cells to form a purple formazan product. Briefly, cells (5-6×10^3/well) were plated in 96 well plates. After incubating overnight, the cells were treated with […] different concentrations (100, 50, 20, 10, 5, 2.5, 1.25 μM) in triplicates with the cationic lipidated cordiarimide and intermediates for 48 h. Subsequently, 10 μL of MTT (10 mg/mL) was added to each well and incubated for 3 h. The MTT formazan formed by viable cells was dissolved in 100 μL of DMSO and shaken for 10 min. The absorbance was measured on an ELISA reader. Each test was repeated at least three times. The concentration of the compound which gives the 50% growth inhibition value corresponding to IC50, was calculated using GraphPad prism 5 software. In the present invention we have screened 26 lipidated cordiarimides and the results are described in table 1.
Background: Tetrazolium assays rely on reduction of a dye to a coloured formazan, in cell work by metabolically active cells.

What is called IC50 is the concentration at which inhibition is half-maximal. Read a low IC50 as higher potency. As for `CCCCCCCCCCCC[N+](C)(CCCCCCCCCCCC)CC(=O)NC1CCC(=O)N(CC(=O)c2ccccc2)C1=O` (stereo not drawn) [Compound 8k, {[2,6-Dioxo-1-(2-oxo-2-phenyl-ethyl)-piperidin-3-ylcarbamoyl]-methyl}-Didodecyl-methyl-ammonium iodide], in the test with HepG2 cells, the “apoptosis induction (in words)” value was “induced significant amount of apoptosis”. In addition, the IC50 in test [1] (48 h) was determined as 1870 nM; in test [1] (Homo sapiens, HepG2, 48 h) it was 1800 nM.
